Columns and labels:
[1] = system: HIV-1 (H9IIIB virus) replication in MT4-GFP cells; experiment: Viking assay: antiviral potency in a multiple round HIV-1 infection assay; format: cell-based; conditions: Human immunodeficiency virus 1; 10% normal human serum; MT4-GFP cells infected with H9IIIB virus; inhibition of reproductive ratio R0; read-out: Viking, IC50 (10%NHS)
Experimental: Assessing antiviral potency in a multiple round HIV-1 infection assay. HIV-1 replication was monitored using MT4-gag-GFP clone D3 (hereafter designate MT4-GFP), which are MT-4 cells modified to harbor a GFP reporter gene, the expression of which is dependent on the HIV-1 expressed proteins tat and rev. Productive infection of an MT4-GFP cell with HIV-1 results in GFP expression approximately 24 h post-infection.
MT4-GFP cells were maintained at 37° C./5% CO2/90% relative humidity in RPMI 1640 supplemented with 10% fetal bovine serum, 100 U/mL penicillin/streptomycin, and 400 μg/mL G418 to maintain the reporter gene. For infections, MT4-GFP cells were placed in the same medium lacking G418 and infected overnight with H9IIIB virus at an approximate multiplicity of infection of 0.01 in the same incubation conditions. Cells were then washed and re-suspended in either RPMI 1640 containing 10% or 50% normal human serum at 1.6×10^5 cells/mL. Compound plates were prepared by dispensing compounds dissolved in DMSO into wells of 384 well poly D lysine-coated plates (0.2 μl/well) using an ECHO acoustic dispenser. Each compound was tested in a 10 point serial 3-fold dilution (typical final concentrations: 8.4 μM-0.43 nM). Controls included no inhibitor (DMSO only) and a combination of three antiviral agents (efavirenz, indinavir, and an integrase strand transfer inhibitor at final concentrations of 4 μM each). Cells were added (50 μL/well) to compound plates and the infected cells were maintained at 37° C./5% CO2/90% relative humidity.
Infected cells were quantified at two time points, ˜48 h and ˜72 h post-infection, by counting the number of green cells in each well using an Acumen eX3 scanner. The increase in the number of green cells over ˜24 h period gives the reproductive ratio, R0, which is typically 5-15 and has been shown experimentally to be in logarithmic phase (data not shown). Inhibition of R0 is calculated for each well, and IC50s determined by non-linear 4-parameter curve fitting.

[2] = CTG assay: cytotoxicity in CellTiter-Glo Luminescent Cell Viability Assay; format: cell-based; conditions: MT4-GFP cells, 10% normal human serum, 48 h incubation
Experimental: Assessing Cytotoxicity in CellTiter-Glo Luminescent Cell Viability Assay (CTG).
MT4-GFP cells were seeded in RPMI 1640 supplemented with 10% fetal bovine serum, 100 U/mL penicillin/streptomycin overnight at 37° C./5% CO2/90% relative humidity. Cells were then washed and resuspended in RPMI 1640 containing 10% normal human serum at a density of 0.8×10^5 cells/mL. Compound plates were prepared by dispensing compounds dissolved in DMSO into wells of 384 well solid black plates (Corning 3571) using an ECHO acoustic dispenser (0.2 μl/well). […] Controls included DMSO. Cells were added (50 μL/well) to compound plates and were maintained at 37° C./5% CO2/90% relative humidity. CTG reagent (Promega, G7573) was added to the cell plates after 48 h incubation according to the manufacturer's description. Luminescence signals were recorded on EnVision plate reader (PerkinElmer). CC50s were determined by non-linear 4-parameter curve fitting. The resulting data is shown in Table 3 with the marketed HIV nucleoside reverse transcriptase inhibitor AZT (azidothymidine, zidovudine) included as a control.

Structure (SMILES) | IC50 [1] [nM] | CC50 at 48 h [2] [nM]
[2H][C@]1(O)C[C@H](n2ccc3c(N)nc(Cl)nc32)O[C@]1(C#C)CO [Example 6, (2R,3S,5R)-5-(4-amino-2-chloro-7H-pyrrolo[2,3-d]pyrimidin-7-yl)-2-ethynyl(3-^2H)-2-(hydroxymethyl)-tetrahydrofuran-3-ol] | 10.6 | > 42000
[2H]C(O)[C@@]1(C#C)O[C@@H](n2ccc3c(N)nc(Cl)nc32)C[C@@H]1O (stereo partly drawn) [Example 10, (2R,3S,5R)-5-{4-amino-2-chloro-7H-pyrrolo[2,3-d]pyrimidin-7-yl}-2-ethynyl-2-[hydroxy(^2H)methyl]oxolan-3-ol] | 5.5 | > 42000
[2H]C([2H])(O)[C@@]1(C#C)O[C@@H](n2ccc3c(N)nc(Cl)nc32)C[C@@H]1O [Example 11, (2R,3S,5R)-5-{4-amino-2-chloro-7H-pyrrolo[2,3-d]pyrimidin-7-yl}-2-ethynyl-2-[hydroxy(^2H2)methyl]oxolan-3-ol] | 5.6 | > 42000
[2H][C@]1(O)C[C@H](n2cnc3c(N)nc(F)nc32)O[C@]1(C#C)CO [Example 3, (2R,3S,5R)-5-(6-amino-2-fluoro-9H-purin-9-yl)-2-ethynyl-2-(hydroxymethyl)(3-^2H)oxolan-3-ol] | 1.2 | > 42000
[2H][C@@]1(O)C[C@H](n2ccc3c(N)nc(Cl)nc32)O[C@]1(C#C)CO [Example 5, (2R,3R,5R)-5-(4-amino-2-chloro-7H-pyrrolo[2,3-d]pyrimidin-7-yl)-2-ethynyl(3-^2H)-2-(hydroxymethyl)-tetrahydrofuran-3-ol] | > 42000 | > 42000
[2H][C@]1(O)C[C@H](n2cc(F)c3c(N)ncnc32)O[C@]1(C#C)CO [Example 2, (2R,3S,5R)-5-{4-amino-5-fluoro-7H-pyrrolo[2,3-d]pyrimidin-7-yl}-2-ethynyl-2-(hydroxymethyl)(3-^2H)oxolan-3-ol] | 3.1 | 31900
[2H]C(O)[C@@]1(C#C)O[C@@H](n2cnc3c(N)nc(F)nc32)C[C@@H]1O (stereo partly drawn) [Example 7, [(2R,3S,5R)-5-(6-amino-2-fluoro-9H-purin-9-yl)-3-oxhydryl-2-ethynyloxolan-2-yl](^2H)-methanol] | 0.7 | > 42000
[2H]C([2H])(O)[C@@]1(C#C)O[C@@H](n2cnc3c(N)nc(F)nc32)C[C@@H]1O [Example 8, [(2R,3S,5R)-5-(6-amino-2-fluoro-9H-purin-9-yl)-3-oxhydryl-2-ethynyloxolan-2-yl](^2H2)methanol] | 1.1 | > 42000
Cc1cn([C@H]2C[C@H](N=[N+]=[N-])[C@@H](CO)O2)c(=O)[nH]c1=O [AZT, 3′-azido-3′-deoxythymidine, reference compound] | 37 | > 8400
[2H][C@]1(n2cnc3c(N)nc(F)nc32)C[C@H](O)[C@@](C#C)(CO)O1 [Example 13, (2R,3S,5R)-5-(6-amino-2-fluoro-9H-purin-9-yl)-2-ethynyl-2-(hydroxymethyl)tetrahydrofuran-5-^2H-3-ol] | 0.2 | > 42000
[2H][C@@]1(O)C[C@H](n2cnc3c(N)nc(F)nc32)O[C@]1(C#C)CO [Example 4, (2R,3R,5R)-5-(6-amino-2-fluoro-9H-purin-9-yl)-2-ethynyl-2-(hydroxymethyl)(3-^2H)oxolan-3-ol] | 1190 | > 42000
[2H][C@@]1(O)C[C@H](n2cc(F)c3c(N)ncnc32)O[C@]1(C#C)CO [Example 1] | 2310 | > 42000
[2H]C#C[C@]1(CO)O[C@@H](n2cnc3c(N)nc(F)nc32)C[C@@H]1O [Example 9, (2R,3S,5R)-5-(6-amino-2-fluoro-9H-purin-9-yl)-2-(^2H)ethynyl-2-(hydroxymethyl)oxolan-3-ol] | 0.6 | > 42000
[2H]C#C[C@]1(CO)O[C@@H](n2ccc3c(N)nc(Cl)nc32)C[C@@H]1O [Example 12, (2R,3S,5R)-5-{4-amino-2-chloro-7H-pyrrolo[2,3-d]pyrimidin-7-yl}-2-(^2H)ethynyl-2-(hydroxymethyl)oxolan-3-ol] | 4.6 | > 42000
[2H][C@]1(n2ccc3c(N)nc(Cl)nc32)C[C@H](O)[C@@](C#C)(CO)O1 [Example 14, (2R,3S,5R)-5-(4-amino-2-chloro-7H-pyrrolo[2,3-d]pyrimidin-7-yl)-2-ethynyl-2-(hydroxymethyl)tetrahydrofuran-5-^2H-3-ol] | 0.3 | > 42000

Reference: patent US20190185508A1, “DEUTERATED NUCLEOSIDE REVERSE TRANSCRIPTASE INHIBITORS” (Merck Sharp & Dohme Corp., priority 2017, published 2019)
